Drawing on ChEMBL document CHEMBL1124634, “Synthesis and antirhinovirus activity of 6-(dimethylamino)-2-(trifluoromethyl)-9-(substituted benzyl)-9H-purines” (J Med Chem, 1989), this text covers IC50 and Inhibition for five molecules.

In assay [1] the test system is Human rhinovirus sp. In words: Antiviral activity against rhinoviral 29 serotype in a plaque inhibition assay using monolayers of M-HeLa cells. The class given is functional, organism-based.
The subject of assay [2] is Human rhinovirus sp. The assay can be described thus: Antiviral activity against rhinoviral 2 serotype in a plaque inhibition assay using monolayers of M-HeLa cells. The class given is functional, organism-based.
The test system of assay [3] is Human rhinovirus sp. In words: Antiviral activity against rhinoviral 14 serotype in a plaque inhibition assay using monolayers of M-HeLa cells. In kind it is functional, organism-based.
For assay [4], the system named is Human rhinovirus sp. In words: Antiviral activity against rhinoviral 15 serotype in a plaque inhibition assay using monolayers of M-HeLa cells. The class given is functional, organism-based.
For assay [5], the system named is Human rhinovirus sp. In words: Antiviral activity against rhinoviral 16 serotype in a plaque inhibition assay using monolayers of M-HeLa cells. In kind it is functional, organism-based.
Assay [6] deals with Human rhinovirus sp. The assay can be described thus: Antiviral activity against rhinoviral 12 serotype in a plaque inhibition assay using monolayers of M-HeLa cells. In kind it is functional, organism-based.
The test system of assay [7] is Human rhinovirus sp. The assay can be described thus: Antiviral activity against rhinoviral-18 serotype in a plaque inhibition assay using monolayers of M-HeLa cells. The class given is functional, organism-based.
Assay [8] deals with Human rhinovirus sp. In words: Antiviral activity against rhinoviral-1A serotype in a plaque inhibition assay using monolayers of M-HeLa cells. In kind it is functional, organism-based.
Assay [9] has as its system Human rhinovirus sp. In words: Antiviral activity against rhinoviral-1B serotype in a plaque inhibition assay using monolayers of M-HeLa cells. The class given is functional, organism-based.
For assay [10], the system named is Human rhinovirus sp. The assay can be described thus: Percent inhibitory activity at 8 uM against rhinoviral 13 serotype in a plaque inhibition assay using monolayers of M-HeLa cells. In kind it is functional.
In assay [11] the test system is Human rhinovirus sp. In words: Percent inhibitory activity at 8 uM against rhinoviral 19s erotype in a plaque inhibition assay using monolayers of M-HeLa cells. In kind it is functional.
The subject of assay [12] is Human rhinovirus sp. The assay can be described thus: Percent inhibitory activity at 8 uM against rhinoviral 31 serotype in a plaque inhibition assay using monolayers of M-HeLa cells. In kind it is functional.
For assay [13], the system named is Human rhinovirus sp. The assay can be described thus: Percent inhibitory activity at 8 uM against rhinoviral 3 serotype in a plaque inhibition assay using monolayers of M-HeLa cells. The class given is functional.
Assay [14] relates to Human rhinovirus sp. In words: Percent inhibitory activity at 8 uM against rhinoviral 4 serotype in a plaque inhibition assay using monolayers of M-HeLa cells. In kind it is functional.
Assay [15] relates to Human rhinovirus sp. The assay can be described thus: Percent inhibitory activity at 8 uM against rhinoviral 5 serotype in a plaque inhibition assay using monolayers of M-HeLa cells. The class given is functional.
Assay [16] is described as follows: Percent inhibitory activity at 8 uM against rhinoviral 8 serotype in a plaque inhibition assay using monolayers of M-HeLa cells. In kind it is functional, Homo sapiens.
The subject of assay [17] is Human rhinovirus sp. In words: Antiviral activity against rhinoviral 21 serotype in a plaque inhibition assay using monolayers of M-HeLa cells. In kind it is functional, organism-based.
For assay [18], the system named is Human rhinovirus sp. In words: Antiviral activity against rhinoviral 9 serotype in a plaque inhibition assay using monolayers of M-HeLa cells. The class given is functional, organism-based.
The subject of assay [19] is Human rhinovirus sp. The assay can be described thus: Percent inhibitory activity at 8 uM against rhinoviral 30 serotype in a plaque inhibition assay using monolayers of M-HeLa cells. In kind it is functional.
Assay [20] relates to Human rhinovirus sp. The assay can be described thus: Antiviral activity against rhinoviral 18 serotype in a plaque inhibition assay using monolayers of M-HeLa cells. The class given is functional, organism-based.
The test system of assay [21] is Human rhinovirus sp. The assay can be described thus: Antiviral activity against rhinoviral 19 serotype in a plaque inhibition assay using monolayers of M-HeLa cells. In kind it is functional, organism-based.
Assay [22] concerns Human rhinovirus sp. The assay can be described thus: Antiviral activity against rhinoviral 30 serotype in a plaque inhibition assay using monolayers of M-HeLa cells. The class given is functional, organism-based.
The subject of assay [23] is Human rhinovirus sp. The assay can be described thus: Antiviral activity against rhinoviral 3 serotype in a plaque inhibition assay using monolayers of M-HeLa cells. The class given is functional, organism-based.
For assay [24], the system named is Human rhinovirus sp. The assay can be described thus: Antiviral activity against rhinoviral 4 serotype in a plaque inhibition assay using monolayers of M-HeLa cells. In kind it is functional, organism-based.
Assay [25] has as its system Human rhinovirus sp. The assay can be described thus: Antiviral activity against rhinoviral 8 serotype in a plaque inhibition assay using monolayers of M-HeLa cells. The class given is functional, organism-based.
Assay [26] in a line: Antiviral activity against rhinoviral 13 serotype in a plaque inhibition assay using monolayers of M-HeLa cells. In kind it is functional, cell-based. The conditions noted are these: Homo sapiens.
In assay [27] the test system is Human rhinovirus sp. In words: Antiviral activity against rhinoviral 5 serotype in a plaque inhibition assay using monolayers of M-HeLa cells. In kind it is functional, organism-based.
Assay [28] deals with Human rhinovirus sp. The assay can be described thus: Antiviral activity against rhinoviral 31 serotype in a plaque inhibition assay using monolayers of M-HeLa cells. In kind it is functional, organism-based.
Assay [29] relates to Human rhinovirus sp. In words: Percent inhibitory activity at 8 uM against rhinoviral 14 serotype in a plaque inhibition assay using monolayers of M-HeLa cells. The class given is functional.
Assay [30] has as its system Human rhinovirus sp. In words: Percent inhibitory activity at 8 uM against rhinoviral 15 serotype in a plaque inhibition assay using monolayers of M-HeLa cells. The class given is functional.
In assay [31] the test system is Human rhinovirus sp. The assay can be described thus: Percent inhibitory activity at 8 uM against rhinoviral 21 serotype in a plaque inhibition assay using monolayers of M-HeLa cells. The class given is functional.
For assay [32], the system named is Human rhinovirus sp. The assay can be described thus: Antiviral activity against rhinoviral-19 serotype in a plaque inhibition assay using monolayers of M-HeLa cells. In kind it is functional, organism-based.
The nature of assay [33]: Percent inhibitory activity at 8 uM against rhinoviral 18 serotype in a plaque inhibition assay using monolayers of M-HeLa cells. The class given is functional, Homo sapiens.

Molecules are shown by their SMILES.

Consider `CN(C)c1nc(C(F)(F)F)nc2c1ncn2Cc1cccc(F)c1`, for which the IC50 with Human rhinovirus sp. [1] worked out at 2.7 µM; in the assay with Human rhinovirus sp. [2], 15 µM; in the assay on Human rhinovirus sp. [3] it was 7.1 µM; with Human rhinovirus sp. [4] it was 3.2 µM; with Human rhinovirus sp. [5], 0.8 µM; in the assay on Human rhinovirus sp. [6], 2.3 µM. Also, the IC50 with Human rhinovirus sp. [7] was determined as 8 µM; in the assay with Human rhinovirus sp. [8] it was 0.57 µM; in the assay with Human rhinovirus sp. [9] it was 0.03 µM; in the assay with Human rhinovirus sp. [17], 10 µM; in the assay with Human rhinovirus sp. [18], 0.3 µM. Also, the Inhibition was 30% with Human rhinovirus sp. [10]; 28% with Human rhinovirus sp. [11]; 43% in the assay on Human rhinovirus sp. [12]; 35% in the assay with Human rhinovirus sp. [13]; 34% in the assay on Human rhinovirus sp. [14]; 34% with Human rhinovirus sp. [15]. Moreover, the Inhibition is 45% in assay [16] and 28% with Human rhinovirus sp. [19].

In the case of `CN(C)c1nc(C(F)(F)F)nc2c1ncn2Cc1ccc(Cl)cc1`, the IC50 in the assay with Human rhinovirus sp. [20] was more than 8 µM; in the assay with Human rhinovirus sp. [21], 6.5 µM; in the assay on Human rhinovirus sp. [1], 2.5 µM; in the assay with Human rhinovirus sp. [2], 6.6 µM; with Human rhinovirus sp. [22], 6.5 µM; with Human rhinovirus sp. [23] it was 6.9 µM. Moreover, the IC50 in the assay with Human rhinovirus sp. [24] was 6.1 µM; in the assay on Human rhinovirus sp. [25], 5.7 µM; in [26], more than 8 µM; in the assay on Human rhinovirus sp. [3] it was 4.3 µM; in the assay with Human rhinovirus sp. [4], 3.3 µM; with Human rhinovirus sp. [6], 7.4 µM. Moreover, the IC50 in the assay with Human rhinovirus sp. [8] is 0.73 µM; in the assay with Human rhinovirus sp. [9], 0.03 µM; with Human rhinovirus sp. [27] it was 8 µM; with Human rhinovirus sp. [17] it was 7.4 µM; with Human rhinovirus sp. [18], 0.9 µM; in the assay on Human rhinovirus sp. [28], 5.3 µM.

Turning to `CN(C)c1ccc(Cn2cnc3c(N(C)C)nc(C(F)(F)F)nc32)cc1`, the IC50 with Human rhinovirus sp. [20] worked out at 8.9 µM; in the assay on Human rhinovirus sp. [1], 4.7 µM; in the assay with Human rhinovirus sp. [2], 11 µM; in the assay with Human rhinovirus sp. [24] it was 6.1 µM; in the assay with Human rhinovirus sp. [5], 1.9 µM; with Human rhinovirus sp. [6], 4 µM. The values for the IC50 in the assay with Human rhinovirus sp. [8], with Human rhinovirus sp. [9] and with Human rhinovirus sp. [18] were 1.2 µM, 0.29 µM and 4.6 µM, respectively. Besides, the Inhibition with Human rhinovirus sp. [10] was 45%; with Human rhinovirus sp. [29], 46%; in the assay on Human rhinovirus sp. [30], 30%; in the assay on Human rhinovirus sp. [11] it was 23%; in the assay with Human rhinovirus sp. [31], 27%; in the assay on Human rhinovirus sp. [12] it was 41%. Also, the Inhibition was determined as 39% in the assay on Human rhinovirus sp. [15], 37% in [16] and 35% with Human rhinovirus sp. [19].

As for `CSc1ccc(Cn2cnc3c(N(C)C)nc(C(F)(F)F)nc32)cc1`, the IC50 in the assay on Human rhinovirus sp. [20] turned out to be 10 µM; in the assay with Human rhinovirus sp. [21], 2.5 µM; with Human rhinovirus sp. [1], 2.6 µM; in the assay with Human rhinovirus sp. [2], 4.5 µM; with Human rhinovirus sp. [22] it was 7.9 µM; with Human rhinovirus sp. [24], 3.8 µM. Also, the IC50 amounted to 7.2 µM with Human rhinovirus sp. [25]; 7.6 µM in the assay with Human rhinovirus sp. [3]; 4.5 µM in the assay with Human rhinovirus sp. [4]; 0.81 µM with Human rhinovirus sp. [5]; 5.2 µM in the assay with Human rhinovirus sp. [6]; 0.57 µM in the assay with Human rhinovirus sp. [8]. Further, the IC50 is 0.07 µM in the assay with Human rhinovirus sp. [9], more than 8 µM in the assay with Human rhinovirus sp. [27], 1 µM with Human rhinovirus sp. [18] and 8.6 µM in the assay on Human rhinovirus sp. [28]. Moreover, the Inhibition in the assay with Human rhinovirus sp. [10] came out at 35%; in the assay with Human rhinovirus sp. [31], 35%; with Human rhinovirus sp. [13] it was 39%.

`Cc1cc(Cn2cnc3c(N(C)C)nc(C(F)(F)F)nc32)ccc1Cl`: the concentration for half-maximal inhibition (IC50) was 7 µM with Human rhinovirus sp. [1]; 5.2 µM in the assay with Human rhinovirus sp. [2]; 7.6 µM in the assay with Human rhinovirus sp. [24]; more than 8 µM in the assay on Human rhinovirus sp. [25]; 8 µM in the assay on Human rhinovirus sp. [3]; 6.1 µM in the assay with Human rhinovirus sp. [4]. Besides, the IC50 is 0.84 µM in the assay with Human rhinovirus sp. [5]; 3.3 µM in the assay with Human rhinovirus sp. [6]; 7.7 µM in the assay with Human rhinovirus sp. [32]; 1.4 µM in the assay on Human rhinovirus sp. [8]; 0.12 µM with Human rhinovirus sp. [9]; more than 8 µM in the assay with Human rhinovirus sp. [27]. Moreover, the IC50 with Human rhinovirus sp. [17] came out at 6.3 µM; in the assay with Human rhinovirus sp. [18], 1 µM; in the assay with Human rhinovirus sp. [28], 9 µM. Moreover, the Inhibition in the assay on Human rhinovirus sp. [10] is 13%; in [33], 28 µM; with Human rhinovirus sp. [13] it was 44%; with Human rhinovirus sp. [19], 31%.

By IC50 is commonly meant the midpoint of a concentration-inhibition curve. A higher IC50 goes with lower potency.
